For this test, the target named is CFTR (Homo sapiens, UniProt P13569, G551D). The test is described as follows: Ussing chamber short-circuit current, FRT cells. Type of test: cell-based.
Chain of CFTR (P13569 whole entry G551D): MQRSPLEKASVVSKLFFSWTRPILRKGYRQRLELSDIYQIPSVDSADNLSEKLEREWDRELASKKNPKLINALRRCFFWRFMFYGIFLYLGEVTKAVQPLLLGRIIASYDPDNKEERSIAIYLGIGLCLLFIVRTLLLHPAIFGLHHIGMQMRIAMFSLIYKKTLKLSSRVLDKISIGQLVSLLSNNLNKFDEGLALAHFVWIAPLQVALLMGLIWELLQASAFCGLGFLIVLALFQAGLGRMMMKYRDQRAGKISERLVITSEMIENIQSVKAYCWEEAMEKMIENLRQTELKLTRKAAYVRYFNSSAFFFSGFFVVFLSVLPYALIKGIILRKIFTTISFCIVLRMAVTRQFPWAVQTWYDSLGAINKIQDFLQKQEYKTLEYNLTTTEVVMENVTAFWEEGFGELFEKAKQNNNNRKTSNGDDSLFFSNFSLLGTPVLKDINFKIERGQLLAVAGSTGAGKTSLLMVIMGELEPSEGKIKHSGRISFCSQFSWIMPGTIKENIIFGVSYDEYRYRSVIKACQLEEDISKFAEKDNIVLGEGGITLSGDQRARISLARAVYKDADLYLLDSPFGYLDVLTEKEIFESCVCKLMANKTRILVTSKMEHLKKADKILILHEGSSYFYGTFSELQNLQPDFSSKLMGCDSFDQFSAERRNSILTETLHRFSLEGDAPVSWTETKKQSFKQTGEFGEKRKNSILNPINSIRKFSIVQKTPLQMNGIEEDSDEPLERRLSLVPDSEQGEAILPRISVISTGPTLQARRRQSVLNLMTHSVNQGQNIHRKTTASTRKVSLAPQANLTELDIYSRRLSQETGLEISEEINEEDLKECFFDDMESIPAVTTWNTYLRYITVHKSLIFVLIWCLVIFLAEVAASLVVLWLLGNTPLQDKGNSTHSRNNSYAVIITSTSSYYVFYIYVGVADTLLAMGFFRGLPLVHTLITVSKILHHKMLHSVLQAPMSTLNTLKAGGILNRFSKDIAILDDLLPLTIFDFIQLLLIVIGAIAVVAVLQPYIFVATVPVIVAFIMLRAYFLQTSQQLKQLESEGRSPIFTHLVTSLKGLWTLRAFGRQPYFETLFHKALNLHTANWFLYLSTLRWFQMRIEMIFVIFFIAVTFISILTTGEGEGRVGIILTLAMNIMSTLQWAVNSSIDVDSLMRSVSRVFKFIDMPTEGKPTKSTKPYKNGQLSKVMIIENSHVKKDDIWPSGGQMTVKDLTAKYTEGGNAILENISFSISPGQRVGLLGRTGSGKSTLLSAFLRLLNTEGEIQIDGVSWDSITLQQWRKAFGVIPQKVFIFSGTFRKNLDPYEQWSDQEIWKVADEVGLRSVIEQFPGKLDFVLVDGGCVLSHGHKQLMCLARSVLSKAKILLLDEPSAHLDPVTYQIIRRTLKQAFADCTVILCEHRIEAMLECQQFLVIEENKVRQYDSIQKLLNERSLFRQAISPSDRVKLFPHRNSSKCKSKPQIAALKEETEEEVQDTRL

Regarding `CC(C)(C)c1cc(C(C)(C)C)c(NC(=O)c2c[nH]c3ccccc3c2=O)cc1O` [VX-770], the “Ussing chamber short-circuit current, FRT cells” value is “In terms of efficacy as a single agent, uHTS159 is roughly equivalent to VX-770”.

The values above are taken from paper PMC13267069 (npj Drug Discovery, 2025).
